Laboratory results from ChEMBL document CHEMBL1138714, “Isosteric N-arylpiperazine replacements in a series of dihydropyridine NPY1 receptor antagonists” (Bioorg Med Chem Lett, 2004).

Target: T1, Neuropeptide Y receptor type 1 (Homo sapiens, UniProt P25929)
T1 sequence (P25929 whole entry): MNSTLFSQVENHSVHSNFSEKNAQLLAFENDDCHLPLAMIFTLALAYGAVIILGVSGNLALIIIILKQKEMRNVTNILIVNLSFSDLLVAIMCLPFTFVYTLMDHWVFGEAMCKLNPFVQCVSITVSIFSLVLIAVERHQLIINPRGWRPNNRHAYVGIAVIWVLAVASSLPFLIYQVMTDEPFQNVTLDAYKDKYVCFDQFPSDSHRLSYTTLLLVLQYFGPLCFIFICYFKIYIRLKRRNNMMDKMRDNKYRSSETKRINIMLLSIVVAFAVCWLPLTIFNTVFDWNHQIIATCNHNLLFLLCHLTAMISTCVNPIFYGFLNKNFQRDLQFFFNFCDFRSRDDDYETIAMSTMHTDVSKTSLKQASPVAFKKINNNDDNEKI
Experiment: Inhibition of binding of [125I]PYY to membranes of SK-N-MC cells expressing the human Y1 receptors
Format: cell membranes

**Q.** Which IC50 does the source give for COC(=O)C1=C(C)N=C(C)/C(=C(/O)OC)C1c1cccc(N/C(=N/CCNC2CCN(c3ccccc3)CC2)NC#N)c1 (stereo unspecified) here?
**A.** 10 nM

**Q.** For COC(=O)C1=C(C)N=C(C)/C(=C(/O)OC)C1c1cccc(NC(=O)NCCNC2CCN(c3cccc(Cl)c3)CC2)c1 (stereo unspecified), which IC50 is on record?
**A.** 8 nM

**Q.** For COC(=O)C1=C(C)N=C(C)/C(=C(/O)OC)C1c1cccc(NC(=O)NCCNC2CCN(c3ccccc3C#N)CC2)c1 (stereo unspecified), which IC50 is on record?
**A.** 3 nM

**Q.** For COC(=O)C1=C(C)N=C(C)/C(=C(/O)OC)C1c1cccc(NC(=O)NCCNC2CCN(c3ccccc3OC(F)(F)F)CC2)c1 (stereo unspecified), which IC50 is on record?
**A.** 25 nM

**Q.** Which IC50 does the source give for COC(=O)C1=C(C)N=C(C)/C(=C(/O)OC)C1c1cccc(NC(=O)NCCCN2CCN(c3ccccc3OC)CC2)c1 (stereo unspecified) here?
**A.** 12 nM

**Q.** Which IC50 does the source give for COC(=O)C1=C(C)N=C(C)/C(=C(/O)OC)C1c1cccc(NC(=O)NCCNC2CCN(c3ccccc3C)CC2)c1 (stereo unspecified) here?
**A.** 4 nM

**Q.** Which IC50 does the source give for COC(=O)C1=C(C)N=C(C)/C(=C(/O)OC)C1c1cccc(N/C(=N/CCNC2CCN(c3ccccc3C)CC2)NC#N)c1 (stereo unspecified) here?
**A.** 4 nM

**Q.** For COC(=O)C1=C(C)N=C(C)/C(=C(/O)OC)C1c1cccc(N/C(=N/CCNC2CCN(c3ccccc3OC)CC2)NC#N)c1 (stereo unspecified), which IC50 is on record?
**A.** 4 nM

**Q.** Which IC50 does the source give for COC(=O)C1=C(C)N=C(C)/C(=C(/O)OC)C1c1cccc(NC(=O)NCCNC2CCN(c3ccccc3O)CC2)c1 (stereo unspecified) here?
**A.** 6 nM

**Q.** With COC(=O)C1=C(C)N=C(C)/C(=C(/O)OC)C1c1cccc(NC(=O)NCCNC2CCN(c3ccccc3OC)CC2)c1 (stereo unspecified) as the molecule, how does the IC50 read?
**A.** 2 nM

**Q.** For COC(=O)C1=C(C)N=C(C)/C(=C(/O)OC)C1c1cccc(NC(=O)NCCNC2CCN(c3ccccc3)CC2)c1 (stereo unspecified), which IC50 is on record?
**A.** 2 nM

**Q.** Which IC50 does the source give for COC(=O)C1=C(C)N=C(C)/C(=C(/O)OC)C1c1cccc(NC(=O)NCCNC2CCN(c3ccccc3SC)CC2)c1 (stereo unspecified) here?
**A.** 5 nM

**Q.** Which IC50 does the source give for COC(=O)C1=C(C)N=C(C)/C(=C(/O)OC)C1c1cccc(NC(=O)NCCNC2CCN(c3ccccc3C(F)(F)F)CC2)c1 (stereo unspecified) here?
**A.** 31 nM

**Q.** Which IC50 does the source give for COC(=O)C1=C(C)N=C(C)/C(=C(/O)OC)C1c1cccc(NC(=O)NCCNC2CCN(c3ccccc3[N+](=O)[O-])CC2)c1 (stereo unspecified) here?
**A.** 2 nM

**Q.** For COC(=O)C1=C(C)N=C(C)/C(=C(/O)OC)C1c1cccc(N/C(=N/CCNC2CCN(c3ccccc3SC)CC2)NC#N)c1 (stereo unspecified), which IC50 is on record?
**A.** 3 nM

**Q.** Which IC50 does the source give for COC(=O)C1=C(C)N=C(C)/C(=C(/O)OC)C1c1cccc(N/C(=N/CCNC2CCN(c3ccccc3[N+](=O)[O-])CC2)NC#N)c1 (stereo unspecified) here?
**A.** 4 nM

**Q.** With COC(=O)C1=C(C)N=C(C)/C(=C(/O)OC)C1c1cccc(N/C(=N/CCNC2CCN(c3ccccc3C(F)(F)F)CC2)NC#N)c1 (stereo unspecified) as the molecule, how does the IC50 read?
**A.** 14 nM

**Q.** Which IC50 does the source give for COC(=O)C1=C(C)N=C(C)/C(=C(/O)OC)C1c1cccc(N/C(=N/CCNC2CCN(c3ccccc3O)CC2)NC#N)c1 (stereo unspecified) here?
**A.** 5 nM

**Q.** With COC(=O)C1=C(C)N=C(C)/C(=C(/O)OC)C1c1cccc(N/C(=N/CCNC2CCN(c3ccccc3OC(F)(F)F)CC2)NC#N)c1 (stereo unspecified) as the molecule, how does the IC50 read?
**A.** 28 nM

**Q.** With COC(=O)C1=C(C)N=C(C)/C(=C(/O)OC)C1c1cccc(N/C(=N/CCCN2CCN(c3cccc(OC)c3)CC2)NC#N)c1 (stereo unspecified) as the molecule, how does the IC50 read?
**A.** 39 nM

**Q.** With COC(=O)C1=C(C)N=C(C)/C(=C(/O)OC)C1c1cccc(N/C(=N/CCNC2CCN(c3cccc(Cl)c3)CC2)NC#N)c1 (stereo unspecified) as the molecule, how does the IC50 read?
**A.** 8 nM

**Q.** For COC(=O)C1=C(C)N=C(C)/C(=C(/O)OC)C1c1cccc(N/C(=N/CCNC2CCN(c3ccccc3C#N)CC2)NC#N)c1 (stereo unspecified), which IC50 is on record?
**A.** 3 nM

System: not listed separately
Experiment: Tested for inhibition of the forskolin-stimulated cAMP production
Format: functional

**Q.** With COC(=O)C1=C(C)N=C(C)/C(=C(/O)OC)C1c1cccc(N/C(=N/CCNC2CCN(c3ccccc3OC)CC2)NC#N)c1 (stereo unspecified) as the molecule, how does the Kb read?
**A.** 9.4 nM

**Q.** With COC(=O)C1=C(C)N=C(C)/C(=C(/O)OC)C1c1cccc(NC(=O)NCCNC2CCN(c3ccccc3OC)CC2)c1 (stereo unspecified) as the molecule, how does the Kb read?
**A.** 20 nM

Target: T1, Neuropeptide Y receptor type 1
Experiment: Antagonist activity towards Neuropeptide Y receptor type 1
Format: functional

**Q.** Which Ki does the source give for COC(=O)C1=C(C)N=C(C)/C(=C(/O)OC)C1c1cccc(N/C(=N/CCNC2CCN(c3ccccc3OC)CC2)NC#N)c1 (stereo unspecified) here?
**A.** 3.6 nM

**Q.** With COC(=O)C1=C(C)N=C(C)/C(=C(/O)OC)C1c1cccc(NC(=O)NCCNC2CCN(c3ccccc3OC)CC2)c1 (stereo unspecified) as the molecule, how does the Ki read?
**A.** 1.9 nM
